Where a name gives a salt, the structure may show the parent alone. Read-outs that look alike come from different tables or passages of the source.
Experiments:
[1] = tested on: tetrabenazine-induced depression; assay: Tetrabenazine Induced Depression (exploratory behaviour); format: in vivo; settings: Mus musculus, read-out: % Mice Protected
Method: The compounds of this invention are useful as antidepressant agents in warm-blooded animals as verified by the following test. The antidepressant properties of these compounds were tested by measuring their ability to counteract depression induced in animals by the administration of tetrabenazine methanesulfonate. Each test compound was administered orally (P.O.) or intraperitoneally (I.P.) to 10 mice at a dose of 25 mg/kg of body weight. Thirty minutes later, tetrabenazine methanesulfonate was administered intraperitoneally to each mouse at a dose of 39 mg/kg of body weight, which dose is known to depress markedly the exploratory behaviour of normal mice. Thirty minutes later the mice were tested for their exploratory behaviour as described by E. Greenblatt and A. C. Osterberg, Toxicology and Applied Pharmacology, 7, 566-578 (1965).

[2] = tested on: tetrabenazine-induced ptosis; assay: Tetrabenazine Induced Ptosis (inhibition of ptosis); format: in vivo; settings: Mus musculus, read-out: % Mice Responding
Method: The antidepressant activity of the compounds of this invention was further established in the following test. Inhibition of tetrabenazine-induced ptosis is observed concomitantly with the inhibition of tetrabenazine-induced depression. Ptosis is defined as more than 75% closure of palpebral aperture induced in animals by the administration of tetrabenazine methanesulfonate. The compounds were administered orally (P.O.) or intraperitoneally (I.P.) at 25 mg/kg to groups of 10 mice. Thirty minutes later, tetrabenazine methanesulfonate was administered intraperitoneally to each mouse at a dose of 39 mg/kg. Thirty minutes after the injection of tetrabenazine, the mice were placed on an observation disc and examined for 10 seconds for inhibition of ptosis. […]

[3] = target: T1, [^3 H]-imipramine binding to human platelet membranes (Homo sapiens, UniProt P31645); assay: Platelet Imipramine Binding: inhibition of [^3 H]-imipramine binding to human platelet membranes; settings: 50 μl of 50 μM compound stock + 200 μl membrane/[^3 H]imipramine mixture; 60 minutes at 0° C.; 10 μM desmethylimipramine = 0% binding
T1 construct: from tissue; host or cells: human platelets (sonicated, washed membranes)
T1 sequence (P31645 whole entry): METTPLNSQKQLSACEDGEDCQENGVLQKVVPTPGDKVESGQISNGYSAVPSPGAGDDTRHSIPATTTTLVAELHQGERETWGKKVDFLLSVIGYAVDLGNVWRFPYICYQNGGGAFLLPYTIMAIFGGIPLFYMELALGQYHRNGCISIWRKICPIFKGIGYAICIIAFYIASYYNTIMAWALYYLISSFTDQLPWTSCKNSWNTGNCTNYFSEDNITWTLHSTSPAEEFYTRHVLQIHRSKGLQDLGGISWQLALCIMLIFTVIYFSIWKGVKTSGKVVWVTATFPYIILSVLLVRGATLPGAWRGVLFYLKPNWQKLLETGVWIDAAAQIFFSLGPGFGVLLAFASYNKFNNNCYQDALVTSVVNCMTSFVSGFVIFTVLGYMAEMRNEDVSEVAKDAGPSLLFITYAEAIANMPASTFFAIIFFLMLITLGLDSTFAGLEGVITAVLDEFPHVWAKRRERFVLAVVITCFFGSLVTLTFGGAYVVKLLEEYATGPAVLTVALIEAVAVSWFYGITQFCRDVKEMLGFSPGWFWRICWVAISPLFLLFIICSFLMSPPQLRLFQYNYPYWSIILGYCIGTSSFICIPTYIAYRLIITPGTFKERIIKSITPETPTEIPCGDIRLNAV
Method: The activity of the compounds of this invention as antidepressant agents was further verified in the following test which measures the ability of a test compound to inhibit [^3 H]-imipramine binding to human platelet membranes.
Human platelet concentrates were diluted 1:20 with antiprotease containing buffer of the following composition:
0.005N potassium chloride
3 mN ethylenediaminetetraacetic acid
1 mN ethyleneglycol-bis-(β-aminoethyl ether)-N,N'-tetraacetic acid
This buffer was kept at pH 6.8 to prevent platelet release and aggregation.
The diluted platelets were centrifuged at 2500 g and then resuspended in 50 volumes of the same buffer. The cells were then ruptured with a Branson sonicator while the suspension was maintained in an ice bath. The ruptured cells were then centrifuged at 18,000 g, resuspended in fresh buffer and recentrifuged at 18,000 g. These membranes were diluted with the above antiprotease buffer which had been adjusted to pH 7.4 and to a concentration of 3.0 mg/ml.
The test compounds were dissolved in dimethylsulfoxide at a concentration of 50 mM and then diluted 1:10 in either water, 0.1M hydrochloric acid or 0.1M sodium hydroxide. They were then diluted 1:100 in buffer to 50 μM, and 50 μl of this stock solution was placed in triplicate test tubes. The tubes were cooled to 0° C. and 200 μl of the following mixture were added:
100 μl of 3 mg/ml membrane in buffer
50 μl of 15 nM[^3 H]imipramine in buffer
The tubes were incubated for 60 minutes at 0° C. Controls contain either buffer alone (100%) of 10 μM of final desmethylimipramine (DMI) (0%).
The samples were diluted with 5 ml of buffer [0.12M-sodium chloride, 0.05M-tris buffer, 0.005M-potassium chloride (pH 7.4)], vacuum filtered and washed twice with 5 ml of buffer. Radioactivity was measured in a liquid scintillation counter and the degree of binding was calculated.

[4] = tested on: stress induced depressed ("coping") behavior; assay: Stress Induced Depressed Behavior Test; format: in vivo; settings: rats, intraperitoneally at 5-20 mg/kg; warm (44.5° C.) surface for 15 minutes; high ratio = active
Method: The compounds of this invention are active as antistress agents in warm-blooded animals as evidenced by their results when tested in the Stress Induced Depressed Behavior Test. In this test, rats were confined on a warm (44.5° C.), but aversive, surface for 15 minutes. After 5-6 minutes, control rats began to show episodes of depressed ("coping") behavior where they remained flat and immobile for short to long periods of time. The onset and total duration of this behavior was timed. A ratio of onset/duration was calculated. The test compounds were administered intraperitoneally at 5-20 mg/kg of body weight. Active compounds prolong the time of onset and shorten the duration time resulting in high ratios.

CN1C[C@@H]2[C@@H]3CC[C@@H](C3)[C@]2(c2ccc(Cl)c(Cl)c2)C1 (relative stereo) [3a-(3,4-Dichlorophenyl)octahydro-2-methyl-4,7-methano-1H-isoindole hydrochloride]
responders at 25 mg/kg ([1]; ip): 60% | responders at 25 mg/kg ([2]; ip): 100% | inhibition at 10 µM [3]: 93% | Ratio onset/duration [4]: 59

CN1C[C@@H]2[C@@H]3CC[C@@H](C3)[C@]2(c2ccc([N+](=O)[O-])cc2)C1 (relative stereo) [Octahydro-2-methyl-3a-(4-nitrophenyl)-4,7-methano-1H-isoindole fumarate (1:1)]
responders at 25 mg/kg ([1]; ip): 30% | responders at 25 mg/kg ([2]; ip): 70% | inhibition at 10 µM [3]: 66%

Clc1ccc([C@@]23CNC[C@@H]2[C@@H]2C=C[C@H]3C2)cc1 (relative stereo) [3-a-(4-Chlorophenyl)-2,3,3a,4,7,7a-hexahydro-4,7-methano-1H-isoindole fumarate]
responders at 25 mg/kg ([1]; ip): 60% | responders at 25 mg/kg ([2]; po): 80% | inhibition at 10 µM [3]: 98%

CN1C[C@@H]2[C@@H]3C=C[C@@H](C3)[C@]2(c2cccc(O)c2)C1 (relative stereo) [3-(1,2,3,4,7,7a-Hexahydro-2-methyl-4,7-methano-3aH-isoindol-3a-yl)phenol]
responders at 25 mg/kg ([1]; po): 60% | responders at 25 mg/kg ([2]; po): 100% | inhibition at 10 µM [3]: 86%

CN1C[C@@H]2[C@@H]3CC[C@@H](C3)[C@]2(c2ccc(Cl)cc2)C1 (relative stereo) [3a-(4-Chlorophenyl)octahydro-2-methyl-4,7-methano-1H-isoindole fumarate (1:1)]
responders at 25 mg/kg ([1]; ip): 60% | responders at 25 mg/kg ([2]; ip): 90% | inhibition at 10 µM [3]: 91% | Ratio onset/duration [4]: 20

c1ccc([C@@]23CNC[C@@H]2[C@@H]2CC[C@H]3C2)cc1 (relative stereo) [Octahydro-3a-phenyl-4,7-methano-1H-isoindole fumarate]
responders at 25 mg/kg ([1]; ip): 50% | responders at 25 mg/kg ([2]; ip): 50% | inhibition at 10 µM [3]: 98%

Cc1ccc([C@@]23CN(C)C[C@@H]2[C@@H]2C=C[C@H]3C2)cc1 (relative stereo) [2,3,3a,4,7,7a-Hexahydro-2-methyl-3a-(4-methylphenyl)-4,7-methano-1H-isoindole maleate (1:1)]
responders at 25 mg/kg ([1]; ip): 80% | responders at 25 mg/kg ([2]; po): 90% | inhibition at 10 µM [3]: 98%

CN1C[C@@H]2[C@@H]3CC[C@@H](C3)[C@]2(c2ccc(N)cc2)C1 (relative stereo) [4-(1,2,3,4,5,6,7,7a-Octahydro-2-methyl-4,7-methano-3aH-isoindol-3a-yl)benzenamine fumarate (1:1)]
responders at 25 mg/kg ([1]; ip): 50% | responders at 25 mg/kg ([2]; ip): 100% | inhibition at 10 µM [3]: 80%

C[N+]1(C)C[C@@H]2[C@@H]3CC[C@@H](C3)[C@]2(c2ccc(N=[N+]=[N-])cc2)C1 (relative stereo) [3a-(4-Azidophenyl)octahydro-2,2-dimethyl-4,7-methano-1H-isoindolium iodide]
responders at 25 mg/kg ([1]; po, P.O., 25 mg/kg, 10 mice, tetrabenazine methanesulfonate 39 mg/kg I.P.): 30% | responders at 25 mg/kg ([2]; po, P.O., 25 mg/kg, responders: 75% or greater opening of palpebral aperture): 100% | inhibition at 10 µM [3]: 88%

CCN1C[C@@H]2C3CCC(CC3)[C@]2(c2ccc(Cl)c(Cl)c2)C1 (relative stereo) [3a-(3,4-Dichlorophenyl)-2-ethyloctahydro-4,7-ethano-1H-isoindole fumarate (1:1)]
responders at 25 mg/kg ([1]; po): 50% | responders at 25 mg/kg ([2]; ip): 100% | inhibition at 10 µM [3]: 89% | Ratio onset/duration [4]: 66

Cc1ccc([C@@]23CNC[C@@H]2[C@@H]2C=C[C@H]3C2)cc1 (relative stereo) [2,3,3a,4,7,7a-Hexahydro-3a-(4-methylphenyl)-4,7-methano-1H-isoindole maleate (1:1)]
responders at 25 mg/kg ([2]; ip): 60% | inhibition at 10 µM [3]: 94%

CN1C[C@@H]2[C@@H]3C=C[C@@H](C3)[C@]2(c2ccc(N)cc2)C1 (relative stereo) [4-(1,2,3,4,7,7a-Hexahydro-2-methyl-4,7-methano-3aH-isoindol-3a-yl)benzenamine fumarate (1:2)]
responders at 25 mg/kg ([1]; po): 70% | responders at 25 mg/kg ([2]; ip): 100%

CN1C[C@@H]2C3CCC(CC3)[C@]2(c2ccc(F)c(F)c2)C1 (relative stereo) [3a-(3,4-Difluorophenyl)octahydro-2-methyl-4,7-ethano-1H-isoindole fumarate (1:1)]
inhibition at 10 µM [3]: 100%

CN1C[C@@H]2[C@@H]3CC[C@@H](C3)[C@]2(c2ccc(F)c(F)c2)C1 (relative stereo) [3a-(3,4-Difluorophenyl)octahydro-2-methyl-4,7-methano-1H-isoindole fumarate (1:1)]
responders at 25 mg/kg ([1]; ip): 50% | responders at 25 mg/kg ([2]; ip): 70% | inhibition at 10 µM [3]: 95%

CN1C[C@@H]2C3CCC(CC3)[C@]2(c2ccc(Cl)c(Cl)c2)C1 (relative stereo) [3a-(3,4-Dichlorophenyl)octahydro-2-methyl-4,7-ethano-1H-isoindole fumarate (1:1)]
responders at 25 mg/kg ([1]; po): 50% | responders at 25 mg/kg ([2]; ip): 90% | inhibition at 10 µM [3]: 94% | Ratio onset/duration [4]: 83

Clc1ccc([C@@]23CNC[C@@H]2[C@@H]2CC[C@H]3C2)cc1Cl (relative stereo) [3a-(3,4-Dichlorophenyl)octahydro-4,7-methano-1H-isoindole hydrochloride]
responders at 25 mg/kg ([1]; po): 40% | responders at 25 mg/kg ([2]; ip): 100% | inhibition at 10 µM [3]: 96% | Ratio onset/duration [4]: 76

CN1C[C@@H]2[C@@H]3C=C[C@@H](C3)[C@]2(c2cccc(Cl)c2)C1 (relative stereo) [3a-(3-Chlorophenyl)2,3,3a,4,7,7a-hexahydro-2-methyl-4,7-methano-1H-isoindole fumarate (1:1)]
responders at 25 mg/kg ([1]; ip): 60% | responders at 25 mg/kg ([2]; ip): 100% | inhibition at 10 µM [3]: 86% | Ratio onset/duration [4]: 13

COc1cccc([C@@]23CN(C)C[C@@H]2[C@@H]2C=C[C@H]3C2)c1 (relative stereo) [2,3,3a,4,7,7a-Hexahydro-3a-(3-methoxyphenyl)-2-methyl-4,7-methano-1H-isoindole maleate (1:1)]
responders at 25 mg/kg ([1]; po): 40% | responders at 25 mg/kg ([2]; po): 60% | inhibition at 10 µM [3]: 86%

CN1C[C@@H]2[C@@H]3C=C[C@@H](C3)[C@]2(c2cccc(C(F)(F)F)c2)C1 (relative stereo) [2,3,3a,4,7,7a-Hexahydro-2-methyl-3a-[3-(trifluoromethyl)phenyl]-4,7-methano-1H-isoindole fumarate]
responders at 25 mg/kg ([1]; ip): 70% | responders at 25 mg/kg ([2]; ip): 100% | inhibition at 10 µM [3]: 91%
